The nature of experiment [1]: Antiproliferative activity against over expressing […] human WSU-DLCL2 cells. Format: functional. As to conditions: WSUDLCL2.
In experiment [2] the test system is SUD4. In words: Antiproliferative activity against over expressing […] human SUDHL4 cells. Format: functional, cell-based. As to conditions: SU-DHL-4.
A further experiment relates to MV4-11. In words: Antiproliferative activity against human MV4-11 cells. Format: functional, cell-based.
The test system of experiment [3] is SUD4. Nature of the experiment: Induction of apoptosis in human SUDHL4 cells assessed as early apoptotic cells at 1 uM after 6 days by AnnexinV/propidium iodide staining based flow cytometry analysis (reference value: 0.061 %). The class given is functional. (In general: Flow cytometry measures light scatter and fluorescence of single cells or particles in a stream.)

In experiment [4] the test system is SUD4. Nature of the experiment: Induction of apoptosis in human SUDHL4 cells assessed as early apoptotic cells at 2 uM after 6 days by AnnexinV/propidium iodide staining based flow cytometry analysis (reference value: 0.061 %). The class given is functional.
The test system of experiment [5] is SUD4. In words: Induction of apoptosis in human SUDHL4 cells assessed as viable cells at 1 uM after 6 days by AnnexinV/propidium iodide staining based flow cytometry analysis (reference value: 92.7 %). Format: functional. As to conditions: SU-DHL-4, 144 h, read-out: Activity.
Experiment [6] deals with SUD4. In words: Induction of apoptosis in human SUDHL4 cells assessed as late apoptotic cells at 4 uM after 6 days by AnnexinV/propidium iodide staining based flow cytometry analysis (reference value: 2.01 %). The class given is functional.
For experiment [7], the system named is SUD4. In words: Induction of apoptosis in human SUDHL4 cells assessed as viable cells at 4 uM after 6 days by AnnexinV/propidium iodide staining based flow cytometry analysis (reference value: 92.7 %). The class given is functional. As to conditions: SU-DHL-4, 144 h, read-out: Activity.
For experiment [8], the system named is SUD4. In words: Induction of apoptosis in human SUDHL4 cells assessed as early apoptotic cells at 4 uM after 6 days by AnnexinV/propidium iodide staining based flow cytometry analysis (reference value: 0.061 %). The class given is functional.
For experiment [9], the system named is SUD4. In words: Induction of apoptosis in human SUDHL4 cells assessed as necrotic cells at 4 uM after 6 days by AnnexinV/propidium iodide staining based flow cytometry analysis (reference value: 0.737 %). The class given is functional.
Experiment [10] concerns SUD4. In words: Induction of apoptosis in human SUDHL4 cells assessed as late apoptotic cells at 1 uM after 6 days by AnnexinV/propidium iodide staining based flow cytometry analysis (reference value: 2.01 %). The class given is functional.
The test system of experiment [11] is SUD4. In words: Induction of apoptosis in human SUDHL4 cells assessed as necrotic cells at 1 uM after 6 days by AnnexinV/propidium iodide staining based flow cytometry analysis (reference value: 0.737 %). Format: functional.
The subject of experiment [12] is SUD4. Nature of the experiment: Induction of apoptosis in human SUDHL4 cells assessed as late apoptotic cells at 2 uM after 6 days by AnnexinV/propidium iodide staining based flow cytometry analysis (reference value: 2.01 %). Format: functional.
Experiment [13] deals with SUD4. Nature of the experiment: Induction of apoptosis in human SUDHL4 cells assessed as viable cells at 2 uM after 6 days by AnnexinV/propidium iodide staining based flow cytometry analysis (reference value: 92.7 %). Format: functional. As to conditions: SU-DHL-4, 144 h, read-out: Activity.
For experiment [14], the system named is SUD4. In words: Induction of apoptosis in human SUDHL4 cells assessed as necrotic cells at 2 uM after 6 days by AnnexinV/propidium iodide staining based flow cytometry analysis (reference value: 0.737 %). Format: functional.
Experiment [15] concerns the target T1, Histone-lysine N-methyltransferase EZH2 (Homo sapiens, UniProt Q15910). In words: Inhibition of EZH2 in human SUDHL4 cells assessed as reduction in H3K27 methylation measured after 6 days by western blot analysis. As to conditions: SUD4. The class given is cell-based. A general note: Immunoblotting shows a protein as a band on a membrane.
Target sequence in this assay (Q15910 whole entry, looked up): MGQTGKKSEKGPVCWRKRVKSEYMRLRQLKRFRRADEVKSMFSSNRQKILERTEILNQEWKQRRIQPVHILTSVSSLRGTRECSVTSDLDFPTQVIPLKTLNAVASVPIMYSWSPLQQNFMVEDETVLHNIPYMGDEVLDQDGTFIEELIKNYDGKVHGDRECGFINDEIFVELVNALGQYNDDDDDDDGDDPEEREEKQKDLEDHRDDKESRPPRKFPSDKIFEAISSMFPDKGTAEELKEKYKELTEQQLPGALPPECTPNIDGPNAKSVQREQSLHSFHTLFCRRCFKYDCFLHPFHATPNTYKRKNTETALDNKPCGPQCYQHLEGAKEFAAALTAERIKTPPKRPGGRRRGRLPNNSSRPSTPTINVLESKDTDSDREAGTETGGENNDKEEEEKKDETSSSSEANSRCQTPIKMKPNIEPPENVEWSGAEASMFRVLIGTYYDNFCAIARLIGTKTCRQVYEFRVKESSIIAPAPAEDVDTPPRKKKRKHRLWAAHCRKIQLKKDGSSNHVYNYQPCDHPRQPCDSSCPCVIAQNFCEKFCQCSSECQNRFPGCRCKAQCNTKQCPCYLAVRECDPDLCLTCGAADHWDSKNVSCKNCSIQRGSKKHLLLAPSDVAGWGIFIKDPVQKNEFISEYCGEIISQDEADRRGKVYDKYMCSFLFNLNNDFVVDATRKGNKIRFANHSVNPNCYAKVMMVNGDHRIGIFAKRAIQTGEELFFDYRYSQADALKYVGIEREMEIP
The target of experiment [16] is T1, Histone-lysine N-methyltransferase EZH2. In words: Inhibition of wild type EZH2 (unknown origin) by AlphaLISA assay.
Target sequence in this assay (Q15910 whole entry): as the sequence (Q15910 whole entry, looked up) above

Consider 27 compounds from ChEMBL document CHEMBL4627254, “Design and synthesis of (E)-1,2-diphenylethene-based EZH2 inhibitors” (Bioorg Med Chem Lett, 2020).

As usually defined, the IC50 is the point on the concentration scale where inhibition reaches its midpoint. Lower therefore signals greater potency. With `CCN(c1cc(/C=C/c2ccc(CN3C[C@@H](C)O[C@@H](C)C3)cc2)cc(C(=O)NCc2c3c(c(C)[nH]c2=O)CCCC3)c1C)C1CCOCC1`, the IC50 (in experiment [1]; in the experiment on SUD4 [2]; in the experiment on MV4-11) was greater than 30 µM in each case.
Consider `CCN(c1cc(/C=C/c2cccc(CN3CCOCC3)c2)cc(C(=O)NCc2c3c(c(C)[nH]c2=O)CCCC3)c1C)C1CCOCC1`, for which the IC50 is greater than 30 µM in [1], greater than 30 µM in the experiment on SUD4 [2] and 4.44 µM in the experiment on MV4-11.
As to `CCN(c1cc(/C=C/c2ccc(CN3C[C@H]4C[C@@H]3CO4)c(F)c2)cc(C(=O)NCc2c(C)c3c([nH]c2=O)CCCC3)c1C)C1CCOCC1`, the IC50 in experiment [1] is 6.18 µM; in the experiment with SUD4 [2], greater than 30 µM; with MV4-11, greater than 30 µM.
For `CCN(c1cc(/C=C/c2cccc(CN(C)C)c2)cc(C(=O)NCc2c3c(c(C)[nH]c2=O)CCCC3)c1C)C1CCOCC1`, the IC50 in experiment [1] was 1.61 µM; in the experiment on SUD4 [2], 2.34 µM; in the experiment with MV4-11, 2.8 µM. The Activity with SUD4 [3] was found to be 0.112%; in the experiment with SUD4 [4], 1.28%; in the experiment with SUD4 [6] it was 92.9%; with SUD4 [8], 0.369%; in the experiment with SUD4 [9], 0.824%; in the experiment with SUD4 [10] it was 36.2%. Further, the values for the Activity in the experiment on SUD4 [11], in the experiment on SUD4 [12] and in the experiment with SUD4 [14] were 1.34%, 69.1% and 4.14%, respectively. Further, in the experiment on SUD4 [5], the viability at 1 µM stood at 62.3%. The viability at 4 µM with SUD4 [7] was 5.91%. The viability at 2 µM with SUD4 [13] came out at 25.5%. Besides, the inhibition entry in [15] is “Dose-dependent effect”.
For the compound `CCN(c1cc(/C=C/c2ccc(CN3C[C@@H](C)O[C@@H](C)C3)cc2)cc(C(=O)NCc2c(C)c3c([nH]c2=O)CCCC3)c1C)C1CCOCC1`, the IC50 in experiment [1] was greater than 30 µM; in the experiment on SUD4 [2], greater than 30 µM; with MV4-11, 8.04 µM.
As to `CCN(c1cc(/C=C/c2ccc(N3CCOCC3)nc2)cc(C(=O)NCc2c3c(c(C)[nH]c2=O)CCCC3)c1C)C1CCOCC1`, the IC50 in experiment [1] was 12.6 µM; with SUD4 [2], 21.7 µM; in the experiment with MV4-11, greater than 30 µM.
Consider `CCN(c1cc(/C=C/c2ccc(S(=O)(=O)N3CCOCC3)cc2)cc(C(=O)NCc2c3c(c(C)[nH]c2=O)CCCC3)c1C)C1CCOCC1`, for which, in experiment [1], the half-maximal inhibitory concentration (IC50) is greater than 30 µM.
Take `CCN(c1cc(/C=C/c2ccc(N3CCOCC3)nc2)cc(C(=O)NCc2c(C)c3c([nH]c2=O)CCCC3)c1C)C1CCOCC1`: the results for the IC50 (in [1]; with SUD4 [2]; with MV4-11) were 25.8 µM, greater than 30 µM and greater than 30 µM, respectively.
Take `CCN(c1cc(/C=C/c2ccc(CN3CCN(C)CC3)cc2)cc(C(=O)NCc2c3c(c(C)[nH]c2=O)CCCC3)c1C)C1CCOCC1`: the IC50 in [1] was 2.58 µM; in the experiment on SUD4 [2], 5.96 µM; in the experiment on MV4-11, greater than 30 µM.
Taken in the same sequence, the figures for `CCN(c1cc(/C=C/c2ccc(CN3CCOCC3)cc2)cc(C(=O)NCc2c3c(c(C)[nH]c2=O)CCCC3)c1C)C1CCOCC1` were greater than 30 µM, greater than 30 µM and 6.41 µM.
For `CCN(c1cc(/C=C/c2ccc3c(c2)NC(=O)CO3)cc(C(=O)NCc2c(C)c3c([nH]c2=O)CCCC3)c1C)C1CCOCC1` the same measures were greater than 30 µM, 25.7 µM and 5.69 µM.
Turning to `CCN(c1cc(-c2ccc(CN3CCN(C)CC3)cc2)cc(C(=O)NCc2c3c(c(C)[nH]c2=O)CCCC3)c1C)C1CCOCC1`, the values for the IC50 (in experiment [1]; with SUD4 [2]; in the experiment on MV4-11) were 1.64 µM, 1.78 µM and greater than 30 µM, respectively.
For `CCN(c1cc(/C=C/c2cccc(CN3CCOCC3)c2)cc(C(=O)NCc2c(C)c3c([nH]c2=O)CCCC3)c1C)C1CCOCC1` the same measures were greater than 30 µM, greater than 30 µM and 9.23 µM.
Taken in the same sequence, the figures for `CCN(c1cc(/C=C/c2cccc(CN(C)C)c2)cc(C(=O)NCc2c(C)c3c([nH]c2=O)CCCC3)c1C)C1CCOCC1` were 20.9 µM, 15.7 µM and 3.98 µM.
For the compound `CCN(c1cc(/C=C/c2ccc(CN3CCN(C)CC3)cc2)cc(C(=O)NCc2c(C)c3c([nH]c2=O)CCCC3)c1C)C1CCOCC1`, the IC50 in experiment [1] is 3.11 µM; in the experiment with SUD4 [2], 4.31 µM; in the experiment with MV4-11, 22.6 µM.
In the case of `CCN(c1cc(/C=C/c2ccc(CN3CCC4(CC3)OCCO4)cc2)cc(C(=O)NCc2c3c(c(C)[nH]c2=O)CCCC3)c1C)C1CCOCC1`, the IC50 was 27.7 µM in [1], 0.055 µM in experiment [16], greater than 30 µM with SUD4 [2] and 3.21 µM in the experiment on MV4-11.
With `CCN(c1cc(/C=C/c2ccc(CN3CCOCC3)cc2)cc(C(=O)NCc2c(C)c3c([nH]c2=O)CCCC3)c1C)C1CCOCC1`, the IC50 in experiment [1] was greater than 30 µM; in the experiment with SUD4 [2], 25.7 µM; with MV4-11, greater than 30 µM.
Consider `CCN(c1cc(/C=C/c2ccc(CN3C[C@@H]4C[C@H]3CO4)c(F)c2)cc(C(=O)NCc2c(C)c3c([nH]c2=O)CCCC3)c1C)C1CCOCC1`, for which the figures for the IC50 (in [1]; in the experiment with SUD4 [2]; in the experiment with MV4-11) were 4.58 µM, 10.5 µM and 24.3 µM, respectively.
Take `CCN(c1cc(/C=C/c2ccc(CN3C[C@@H](C)O[C@@H](C)C3)c(F)c2)cc(C(=O)NCc2c(C)c3c([nH]c2=O)CCCC3)c1C)C1CCOCC1`: the IC50 in [1] was greater than 30 µM; with SUD4 [2], 20.4 µM; in the experiment with MV4-11 it was 12 µM.
Turning to `CCN(c1cc(/C=C/c2ccc(CN3C[C@H]4C[C@@H]3CO4)c(F)c2)cc(C(=O)NCc2c3c(c(C)[nH]c2=O)CCCC3)c1C)C1CCOCC1`, the values for the IC50 (in experiment [1]; with SUD4 [2]; in the experiment with MV4-11) were 5.85 µM, greater than 30 µM and greater than 30 µM, respectively.
Compound `CCN(c1cc(/C=C/c2ccc(/C=C/C(=O)OC)cc2)cc(C(=O)NCc2c3c(c(C)[nH]c2=O)CCCC3)c1C)C1CCOCC1` had a concentration for half-maximal inhibition (IC50) in experiment [1] of 21.2 µM.
Regarding `CCN(c1cc(/C=C/c2ccc3c(c2)NC(=O)CO3)cc(C(=O)NCc2c3c(c(C)[nH]c2=O)CCCC3)c1C)C1CCOCC1`, the IC50 in experiment [1] is greater than 30 µM; in the experiment with SUD4 [2] it was 30 µM; in the experiment on MV4-11 it was 4.56 µM.
Consider `CCN(c1cc(/C=C/c2ccc(CN3CCC4(CC3)OCCO4)cc2)cc(C(=O)NCc2c(C)c3c([nH]c2=O)CCCC3)c1C)C1CCOCC1`, for which the IC50 is 17.5 µM in experiment [1], 0.189 µM in experiment [16], 21.6 µM with SUD4 [2] and 3.87 µM in the experiment on MV4-11.
Take `CCN(c1cc(/C=C/c2ccc(CN3C[C@@H]4C[C@H]3CO4)c(F)c2)cc(C(=O)NCc2c3c(c(C)[nH]c2=O)CCCC3)c1C)C1CCOCC1`: the IC50 in [1] worked out at 9.27 µM; with SUD4 [2], 15.4 µM; in the experiment on MV4-11 it was 21.1 µM.
Turning to `CCN(c1cc(/C=C/c2ccc(CN3C[C@@H](C)O[C@@H](C)C3)c(F)c2)cc(C(=O)NCc2c3c(c(C)[nH]c2=O)CCCC3)c1C)C1CCOCC1`, the IC50 in experiment [1] is 27.7 µM; with SUD4 [2], greater than 30 µM; with MV4-11, 4.36 µM.
In the case of `CCN(c1cc(-c2ccc(CN3CCOCC3)cc2)cc(C(=O)NCc2c(C)cc(C)[nH]c2=O)c1C)C1CCOCC1` [TAZEMETOSTAT], the IC50 is 17.8 µM in experiment [1], 14.3 µM in the experiment on SUD4 [2] and 22.4 µM with MV4-11.
`CCN(c1cc(/C=C/c2ccc(S(=O)(=O)N3CCOCC3)cc2)cc(C(=O)NCc2c(C)c3c([nH]c2=O)CCCC3)c1C)C1CCOCC1`: in experiment [1], the IC50 was greater than 30 µM.
